One block for each molecule: values may come before it.
How the values were obtained:
[1] = system: BMP-specific Smad1-driven 9×GCCG reporter; assay: BMP-2 induced Smad1-driven dual-luciferase reporter assay in C2C12 cells; assay type: cell-based, Mouse; conditions: BMP-2 1 ng/ml
Description: A cell-based method was optimized to monitor BMP-2 induced responses. […] One can monitor transcriptional activity driven by activated Smad1 in C2C12 cells in a cell-based assay utilizing a Smad1-specific luciferase reporter plasmid containing a multimerized -GCCG- motif (9 copies). […] A concentration range of BMP-2 required for activating the reporter assay was established.
A BMP-specific Smad1-driven 9×GCCG (a consensus binding sequence for Smad1) reporter plasmid was used. The C2C12 cells were trypsinized and seeded in triplicate wells at 50,000 cells/well in 12-well plates on day 1. On day 2, the cells were cotransfected with the 9×GCCG-reporter construct and the renilla-luciferase control vector using SuperFect (Qiagen, Valencia, CA) for 24 hrs. […] On day 5, the luciferase activities were measured in 20 μl of cell-lysate using the dual-luciferase assay system (Promega, Madison, WI) with a luminometer (LumiCount™; Packard Bioscience, Meriden, CT) following the manufacturer's instructions. The luciferase activity was expressed as relative units of luciferase (RUL; a ratio of firefly luciferase to renilla luciferase activity). […]

[2] = system: alkaline phosphatase mRNA; assay: BMP-2 induced alkaline phosphatase mRNA level, quantitative real-time RT-PCR in C2C12 cells; assay type: cell-based, Mouse; conditions: for increase in alkaline phosphatase mRNA by BMP-2 alone: compared to no treatment control
Protocol: (§1) Mouse C2C12 cells and Dulbecco's modified Eagle's medium (DMEM) were purchased from ATCC (Manassas, VA). The non-heat inactivated fetal bovine serum (FBS) was purchased from HyClone Laboratories, Inc. (Logan, UT). The C2C12 cells at passages 5 to 10 were subcultured in T-75 cm^2 flasks in DMEM supplemented with 10% FBS at 37° C. in 5% CO2 with humidification. When the flasks reached 80% confluence, the cells were trypsinized and seeded in triplicate at 200,000 cells/well in a 6-well plate for quantitative real-time RT-PCR and alkaline phosphatase (ALP) assays or at 50,000 cells/well in a 12-well plate for the dual-luciferase reporter assay.
(§2) The C2C12 cells were plated at a density of 200,000 cells/well in 6-well plates and grown overnight in DMEM containing 10% FBS. On day 2, the culture medium was replaced with DMEM containing 2% FBS and the cells were treated with various concentrations of Smurf1-interacting compound (diluted from 10 mg/ml stock solutions prepared in DMSO) for 24 hours. In control cultures, a DMSO solvent concentration of 0.01% (v/v) was applied. On day 3, medium was replaced with fresh DMEM containing 2% FBS and the cells were treated with BMP-2 for 24 hours.
(§3) Total RNA was harvested using the RNeasy Mini Kit according to the manufacturer's instructions (Qiagen, Valencia, CA). The harvested RNA was digested with RNase-free DNase I (Qiagen, Valencia, CA) to remove DNA contamination. The concentration of the isolated RNA was determined by measuring the absorbance at 260 nm wave length with a spectrophotometer (Model DU 640, Beckman Coulter, Inc. Brea, CA). The ratio of A260/A280 was between 1.6 and 1.8. Reverse transcription was carried out to synthesize cDNA in a 100 μl volume with 2 μg of total RNA, 10×RT buffer, 5.5 mM MgCl2, 2 mM dNTP mixture, 0.125 μM oligo d(T), 0.125 μM random primer, 40 Units of RNase inhibitor, and 125 Units of MultiScribe™ (Applied Biosystems, Foster City, CA) for 10 minutes at 25° C., 30 minutes at 48° C., and 5 minutes at 95° C.
Quantitative real-time RT-PCR was performed to determine the mRNA expression level of ALP and osteocalcin. The sequences of the primers were as follows: ALP (forward, 5′-TCAGGGCAATGAGGTCACATC-3′; (SEQ ID NO: 6), reverse, 5′-CAC AAT GCC CAC GGA CTT C-3′) (SEQ ID NO: 7), osteocalcin (forward, 5′-CGGCCCTGAGTCTGACAAAG-3′; (SEQ ID NO: 8) reverse, 5′-CTCGTCACAAGCAGGGTCAA-3′ (SEQ ID NO: 9)). Twenty-five microliters of reaction volume included 5 μl of cDNA, 0.5 μl of 10 μM of each primer and 12.5 μl of 2×SYBR green master mix (Applied Biosystems). […]

osteocalcin mRNA = assay: BMP-2 induced osteocalcin mRNA level, quantitative real-time RT-PCR in C2C12 cells; assay type: cell-based, Mouse; conditions: for increase in osteocalcin mRNA by BMP-2 alone: compared to no treatment control
Protocol: as §1, §2, §3
Quantitative real-time RT-PCR was performed to determine the mRNA expression level of ALP and osteocalcin. The sequences of the primers were as follows: ALP (forward, 5′-TCAGGGCAATGAGGTCACATC-3′; (SEQ ID NO: 6), reverse, 5′-CAC AAT GCC CAC GGA CTT C-3′) (SEQ ID NO: 7), osteocalcin (forward, 5′-CGGCCCTGAGTCTGACAAAG-3′; (SEQ ID NO: 8) reverse, 5′-CTCGTCACAAGCAGGGTCAA-3′ (SEQ ID NO: 9)). Twenty-five microliters of reaction volume included 5 μl of cDNA, 0.5 μl of 10 μM of each primer and 12.5 μl of 2×SYBR green master mix (Applied Biosystems). Real-time PCR was performed with the following three-step protocol: step 1, 50° C. for 2 minutes; step 2, 95° C. for 10 minutes; step 3, 40 cycles of 95° C. for 15 seconds and 62° C. for 1 minute using the 7500 real-time PCR System (Applied Biosystems, Foster City, CA). To confirm the amplification specificity, the PCR products were subjected to a dissociation curve analysis. The threshold cycles (Ct) of each reaction were normalized to those obtained for 18S mRNA using the −ΔΔCt method (Applied Biosystems). All PCR reactions were performed in triplicate.
(§4) The EC50 values were calculated by determining the concentration by which 50% of maximum activity was reached using the sigmoidal fit equation. The 50% effective concentrations were determined with the standard curve analysis of SigmaPlot™ 8.02. […]

[3] = system: alkaline phosphatase activity; assay: BMP-2 induced alkaline phosphatase (ALP) enzyme activity assay in C2C12 cells; assay type: cell-based, Mouse
Protocol: as §1
The C2C12 cells were plated at 200,000 cells/well in 6-well plates and grown overnight in DMEM containing 10% FBS. On day 2, the culture medium was replaced with DMEM containing 2% FBS and the cells were treated with various concentrations of the Smurf1-interacting compound for 24 hours. On day 3, the medium was replaced with fresh DMEM containing 2% FBS and the cells were treated with 50 ng/ml of BMP-2 with or without compound for 72 hours. The cells were washed with phosphate-buffered saline (PBS) and lysed by addition of lysis buffer (10 mM Tris-HCl pH 8.0, 1 mM MgCl2 and 0.5% Triton X-100). The cell lysates were centrifuged for 5 minutes at 13,000×g. The supernatant was removed and the aliquots were assayed for ALP activity and protein amount. The ALP activity was measured in triplicate using an ALP assay kit (Sigma-Aldrich, St. Louis, MO) in microtiter plates. The protein amount was determined with Bio-Rad™ protein assay reagent (Bio-Rad, Hercules, CA) using bovine serum albumin (BSA) as a standard. The ALP activity (nmoles of p-nitrophenol per ml) was normalized to the protein amount (nmoles of p-nitrophenol per μg).
as §4

rat model = assay: in vivo bone-formation in rat model (ectopic bone induction); conditions: without any BMP-2
C2C12 cells = assay: cell lifting / cell number observation in C2C12 reporter assay; assay type: cell-based, Mouse; conditions: reduced number of cells at end of experiment
Protocol: Compounds were tested experimentally for their ability to potentiate BMP-2 activity in our luciferase reporter assay using C2C12 cells (FIGS. 5A and 5B).

C2C12 myoblasts = assay: BMP-2 responsiveness / osteoblastic transdifferentiation of C2C12 myoblasts, multiple assays; assay type: cell-based, Mouse
Description: Derivatives with desired attributes can be evaluated using the procedure described below.
Compounds were selected by virtual screening for development based on computational modeling, docking, and in silico screening. […] (See Sangadala et al. (2007) Proteins 68: 690-701 and FIG. 2). The BMP-potentiating activities of compounds may be evaluated by monitoring several markers of the osteoblastic phenotype corresponding to various time points during phenotype differentiation of C2C12 cells towards terminally differentiated osteoblasts.

- EC50 ([1]; Mus musculus, C2C12, calculated from the Hill plot, read-out: EC50, potentiation of BMP-2 luciferase reporter activity): 2.6 µM
- EC50 ([2]; Mus musculus, C2C12, BMP-2 20 ng/ml, estimated, read-out: EC50, expression of alkaline phosphatase mRNA): 1.5 to 5.3 µM
- EC50 (osteocalcin mRNA; Mus musculus, C2C12, BMP-2 20 ng/ml, estimated, read-out: EC50, expression of osteocalcin mRNA): 1.5 to 5.3 µM
- EC50 ([3]; Mus musculus, C2C12, BMP-2 50 ng/ml, estimated): 3.7 µM
- concentration causing lifting of some cells from the plates (C2C12 cells): higher than 1.5 ug/ml
Molecule: C=Cc1nc(N)nc(N)n1 [Compound 12, 2,4-diamino-6-vinyl-1,3,5-triazine]
- optimum enhancement of BMP-2 induced luciferase activity ([1]; compound 1.0 μg/ml, compared to BMP-2 alone, P<0.05): 3.8 fold
- maximal increase in BMP-induced alkaline phosphatase mRNA level ([2]; BMP-2 20 ng/ml, compared to BMP-2 alone, P<0.05): 3.5 fold
- effect of compound alone on osteocalcin mRNA (osteocalcin mRNA; absence of BMP-2): no significant effect
- maximal increase in BMP-induced osteocalcin mRNA level (osteocalcin mRNA; compound 1.0 μg/ml, BMP-2 20 ng/ml, compared to BMP-2 alone, P<0.05): 4.4 fold
- maximal increase in BMP-2 induced ALP activity ([3]; compound 1.0 μg/ml, BMP-2 50 ng/ml, compared to BMP-2 alone, P<0.001): 4.8 fold
- bone-formation in rat model (rat model): capable of inducing bone-formation
- potentiation of BMP-2 induced transdifferentiation of C2C12 myoblasts into the osteoblastic phenotype (C2C12 myoblasts): potentiate the effects of BMP-2
- effective dose of compound among multiple assays (C2C12 myoblasts; C2C12 cells, BMP-2 induced markers): 0.275 to 1.0 µg/mL
- effect on BMP-2-induced response (C2C12 myoblasts; dose of 0.1 μg/ml): elevated the BMP-2-induced response significantly

Molecule: CC1(C)N=C(N)N=C(N)N1c1ccc(Cl)cc1 [Compound 12X, 1-(4-chlorophenyl)-4,6-diamino-1,2-dihydro-2,2-dimethyl-1,3,5-triazine]
- efficacy relative to other derivatives in cell-based alkaline phosphatase assay ([3]; screening, FIG. 9): more efficacious
- potentiation of BMP-2 induced transdifferentiation of C2C12 myoblasts into the osteoblastic phenotype (C2C12 myoblasts): potentiate the effects of BMP-2

B1: BMP-2: bone morphogenetic protein, growth factor known to induce bone and cartilage formation and play a role in osteoblast differentiation (protein, listed as Homo sapiens)
chain: MVAGTRCLLALLLPQVLLGGAAGLVPELGRRKFAAASSGRPSSQPSDEVLSEFELRLLSMFGLKQRPTPSRDAVVPPYMLDLYRRHSGQPGSPAPDHRLERAASRANTVRSFHHEESLEELPETSGKTTRRFFFNLSSIPTEEFITSAELQVFREQMQDALGNNSSFHHRINIYEIIKPATANSKFPVTRLLDTRLVNQNASRWESFDVTPAVMRWTAQGHANHGFVVEVAHLEEKQGVSKRHVRISRSLHQDEHSWSQIRPLLVTFGHDGKGHPLHKREKRQAKHKQRKRLKSSCKRHPLYVDFSDVGWNDWIVAPPGYHAFYCHGECPFPLADHLNSTNHAIVQTLVNSVNSKIPKACCVPTELSAISMLYLDENEKVVLKNYQDMVVEGCGCR
- increase in alkaline phosphatase mRNA by BMP-2 alone ([2]; absence of DMSO): 43 fold
- increase in alkaline phosphatase mRNA by BMP-2 alone ([2]; presence of DMSO (0.01%)): 51 fold
- increase in osteocalcin mRNA by BMP-2 alone (osteocalcin mRNA; absence of DMSO): 9 fold
- increase in osteocalcin mRNA by BMP-2 alone (osteocalcin mRNA; presence of DMSO (0.01%)): 7 fold
